Test results taken from the NIST ThermoML archive (doi:10.1021/je0500734).

Legend:
[1] = 101.33 kPa, Liquid; for speed of sound: acoustic time of flight gauge
[2] = xn = mol fraction of the nth substance listed; conditions: 101.33 kPa, Liquid; for speed of sound: acoustic time of flight gauge

[2H]C([2H])([2H])[N+](=O)[O-] [deuteronitromethane]
[1]
Conditions	kinematic viscosity [m2/s]	mass density [kg/m3]	speed of sound [m/s]	viscosity [mPa·s]
293.15 K	6.05e-07	1194.74	1291.1	–
295.15 K	5.81e-07	1190.43	1283.2	–
298.15 K	5.7e-07	1187.71	1271.3	–
300.15 K	5.49e-07	1184.73	1263.3	–
303.15 K	5.26e-07	1181.86	1251.4	–
303.5 K	6.27e-07	1180.03	–	0.6274
305.15 K	5.13e-07	1178.3	1243.5	–
307.5 K	5.82e-07	1172.08	–	0.5819
308.15 K	4.92e-07	1173.28	1231.6	–

[2H]C([2H])([2H])[N+](=O)[O-] [deuteronitromethane] + CCCCCO
[2]
Conditions	mass density, 303.5 K [kg/m3]	mass density, 307.5 K [kg/m3]	viscosity, 303.5 K [mPa·s]	viscosity, 307.5 K [mPa·s]
x1 = 0.08	823.07	819.05	–	–
x1 = 0.103	–	–	2.46	2.158
x1 = 0.178	843.08	838.92	–	–
x1 = 0.206	–	–	2.16	1.82
x1 = 0.245	858.21	853.8	–	–
x1 = 0.302	–	–	1.796	1.517
x1 = 0.351	883.03	878.4	–	–
x1 = 0.401	896.26	891.53	–	–
x1 = 0.418	–	–	1.447	1.251
x1 = 0.49	922.6	917.6	–	–
x1 = 0.502	–	–	1.24	1.077
x1 = 0.598	–	–	1.069	0.9159
x1 = 0.615	966.2	960.5	1.033	0.8939
x1 = 0.644	–	–	1.026	0.8578
x1 = 0.669	988.3	982.16	–	–
x1 = 0.749	1024.62	1018.46	–	–
x1 = 0.758	–	–	0.7821	0.7064
x1 = 0.801	–	–	0.7859	0.6878
x1 = 0.86	1084.42	1077.9	–	–
x1 = 0.904	–	–	0.6496	0.5971
x1 = 0.959	1149.88	1142.39	–	–
x1 = 1	1180.03	1172.08	0.6274	0.5819

C[N+](=O)[O-] [nitromethane]
[1]
Conditions	kinematic viscosity [m2/s]	mass density [kg/m3]	speed of sound [m/s]	viscosity [mPa·s]
293.15 K	6.01e-07	1137.21	1337.6	–
295.15 K	5.77e-07	1133.14	1329.5	–
298.15 K	5.62e-07	1130.42	1317.4	–
300.15 K	5.47e-07	1127.55	1309.4	–
301.15 K	–	1126.24	1305.3	0.6091
301.3 K	–	1126.04	–	0.6074
303.15 K	5.25e-07	1123.49	1297.3	–
305.15 K	5.1e-07	1120.82	1289.2	–
306.15 K	–	1119.36	1285.2	0.5636
306.3 K	–	1119.15	–	0.5623
308.15 K	4.89e-07	1116.54	1277.1	–

C[N+](=O)[O-] [nitromethane] + CCCCCO
[2]
Conditions	mass density [kg/m3]	speed of sound [m/s]	viscosity [mPa·s]
301.15 K, x1 = 0.065	818.89	–	–
301.15 K, x1 = 0.099	–	1258.1	–
301.15 K, x1 = 0.113	–	–	2.379
301.15 K, x1 = 0.127	828.49	–	–
301.15 K, x1 = 0.186	838.83	–	–
301.15 K, x1 = 0.202	–	1252.1	–
301.15 K, x1 = 0.203	–	–	2.119
301.15 K, x1 = 0.26	852.95	–	–
301.15 K, x1 = 0.302	–	1248.3	–
301.15 K, x1 = 0.31	863.38	–	–
301.15 K, x1 = 0.314	–	–	1.743
301.15 K, x1 = 0.398	883.3	–	1.487
301.15 K, x1 = 0.401	–	1245.4	–
301.15 K, x1 = 0.469	–	–	1.231
301.15 K, x1 = 0.502	–	1242.7	–
301.15 K, x1 = 0.503	910.3	–	–
301.15 K, x1 = 0.516	–	–	1.111
301.15 K, x1 = 0.54	920.98	–	–
301.15 K, x1 = 0.616	944.27	–	–
301.15 K, x1 = 0.619	–	1243.9	–
301.15 K, x1 = 0.62	–	–	0.9425
301.15 K, x1 = 0.699	973.7	–	–
301.15 K, x1 = 0.701	–	1247	–
301.15 K, x1 = 0.752	–	–	0.7812
301.15 K, x1 = 0.753	994.05	–	–
301.15 K, x1 = 0.801	–	–	0.7348
301.15 K, x1 = 0.802	1016.76	1258.9	–
301.15 K, x1 = 0.824	–	–	0.679
301.15 K, x1 = 0.849	–	–	0.673
301.15 K, x1 = 0.902	–	1281.2	–
301.15 K, x1 = 0.911	1070.91	–	–
301.15 K, x1 = 0.934	–	–	0.6149
301.15 K, x1 = 1	1126.24	1305.3	0.6091
306.15 K, x1 = 0.065	815.14	–	–
306.15 K, x1 = 0.099	–	1240.6	–
306.15 K, x1 = 0.113	–	–	2.009
306.15 K, x1 = 0.127	824.47	–	–
306.15 K, x1 = 0.186	834.67	–	–
306.15 K, x1 = 0.202	–	1234.6	–
306.15 K, x1 = 0.203	–	–	1.744
306.15 K, x1 = 0.26	848.61	–	–
306.15 K, x1 = 0.302	–	1230.6	–
306.15 K, x1 = 0.31	858.74	–	–
306.15 K, x1 = 0.314	–	–	1.473
306.15 K, x1 = 0.398	878.5	–	1.282
306.15 K, x1 = 0.401	–	1227.7	–
306.15 K, x1 = 0.469	–	–	1.093
306.15 K, x1 = 0.502	–	1225.5	–
306.15 K, x1 = 0.503	905.13	–	–
306.15 K, x1 = 0.516	–	–	0.9447
306.15 K, x1 = 0.54	915.83	–	–
306.15 K, x1 = 0.616	939	–	–
306.15 K, x1 = 0.619	–	1226.6	–
306.15 K, x1 = 0.62	–	–	0.7854
306.15 K, x1 = 0.699	967.99	–	–
306.15 K, x1 = 0.701	–	1230.2	–
306.15 K, x1 = 0.752	–	–	0.6945
306.15 K, x1 = 0.753	987.94	–	–
306.15 K, x1 = 0.801	–	–	0.6634
306.15 K, x1 = 0.802	1010.21	1241.7	–
306.15 K, x1 = 0.824	–	–	0.6288
306.15 K, x1 = 0.849	–	–	0.6161
306.15 K, x1 = 0.902	–	1262.1	–
306.15 K, x1 = 0.911	1064.52	–	–
306.15 K, x1 = 0.934	–	–	0.5661
306.15 K, x1 = 1	1119.36	1285.2	0.5636

C[N+](=O)[O-] [nitromethane] + [2H]OCCCCC
[2], x1 = 1
Conditions	mass density [kg/m3]	viscosity [mPa·s]
301.3 K	1126.04	0.6074
306.3 K	1119.15	0.5623

[2H]OCCCCC [pentan-1-ol-d]
[1]
Conditions	mass density [kg/m3]	speed of sound [m/s]	viscosity [mPa·s]
293.15 K	821.69	1282.3	–
295.15 K	819.5	1273.7	–
298.15 K	818.04	1265.1	–
300.15 K	816.42	1258.3	–
301.3 K	815.63	–	3.118
303.15 K	814.24	1248.5	–
305.15 K	813.1	1241.1	–
306.3 K	811.88	–	2.685
308.15 K	810.47	1230.8	–

[1], Capillary tube (Ostwald / Ubbelohde) method
Conditions	kinematic viscosity [m2/s]
293.15 K	4.99e-06
295.15 K	4.458e-06
298.15 K	4.238e-06
300.15 K	3.969e-06
303.15 K	3.685e-06
305.15 K	3.456e-06
308.15 K	3.148e-06

[2H]OCCCCC [pentan-1-ol-d] + C[N+](=O)[O-]
[2]
Conditions	mass density, 301.3 K [kg/m3]	mass density, 306.3 K [kg/m3]	viscosity, 301.3 K [mPa·s]	viscosity, 306.3 K [mPa·s]
x2 = 0	815.63	811.88	3.118	2.685
x2 = 0.07	825.73	821.85	–	–
x2 = 0.106	–	–	2.465	2.186
x2 = 0.154	839.37	835.21	–	–
x2 = 0.231	852.09	847.81	–	–
x2 = 0.245	–	–	1.937	1.678
x2 = 0.298	862.5	858.1	–	–
x2 = 0.385	879.49	873.8	–	–
x2 = 0.386	–	–	1.497	1.319
x2 = 0.503	906.93	904.01	–	–
x2 = 0.508	–	–	1.161	1.066
x2 = 0.551	920.64	917.49	–	–
x2 = 0.555	–	–	1.097	0.9975
x2 = 0.623	–	–	1.004	0.8782
x2 = 0.651	954.06	950.15	–	–
x2 = 0.679	–	–	0.9207	0.7937
x2 = 0.718	–	–	0.8419	0.729
x2 = 0.74	989.43	983.56	–	–
x2 = 0.749	–	–	0.7878	0.6974
x2 = 0.774	–	–	0.7451	0.6734
x2 = 0.847	1037.27	1031.12	–	–
x2 = 0.946	1090.5	1083.88	–	–

CCCCCO [pentan-1-ol]
[1]
Conditions	mass density [kg/m3]	speed of sound [m/s]	viscosity [mPa·s]
293.15 K	815.09	1290.7	–
295.15 K	812.74	1282.1	–
298.15 K	811.4	1273.6	–
300.15 K	809.72	1266.7	–
301.15 K	808.96	1263.3	3.113
303.15 K	807.41	1256.4	–
303.5 K	807.33	–	2.997
305.15 K	805.78	1249.4	–
306.15 K	805.17	1246.2	2.686
307.5 K	803.76	–	2.57
308.15 K	803.71	1239.3	–

[1], Capillary tube (Ostwald / Ubbelohde) method
Conditions	kinematic viscosity [m2/s]
293.15 K	4.96e-06
295.15 K	4.444e-06
298.15 K	4.223e-06
300.15 K	3.942e-06
303.15 K	3.635e-06
305.15 K	3.45e-06
308.15 K	3.129e-06

CCCCCO [pentan-1-ol] + C[N+](=O)[O-]
[2], x2 = 0
Conditions	mass density [kg/m3]	speed of sound [m/s]	viscosity [mPa·s]
301.15 K	808.96	1263.3	3.113
306.15 K	805.17	1246.2	2.686

CCCCCO [pentan-1-ol] + [2H]C([2H])([2H])[N+](=O)[O-]
[2], x2 = 0
Conditions	mass density [kg/m3]	viscosity [mPa·s]
303.5 K	807.33	2.997
307.5 K	803.76	2.57
